Results: paper PMC8615111, “Phenolic Thiazoles with Antioxidant and Antiradical Activity. Synthesis, In Vitro Evaluation, Toxicity, Electrochemical Behavior, Quantum Studies and Antimicrobial Screening” (Antioxidants, 2021)
Like-named read-outs stand apart in the source and are kept apart here.

What was measured:
Cu^2+ chelation assay = type: biochemical
[1] = Ferric ions (Fe^3+) reducing antioxidant power by cyclic voltammetry
Description: The evaluated compounds’ stock solutions used were prepared at a concentration of 5 mM. To test their redox properties, dilutions of 0.5 mM and 2 mM were prepared in 0.1 M HClO4 electrolyte (pH = 1.2). Screen-printed electrodes (SPEs; Metrohm DropSens, Oviedo, Spain) (planar electrodes) with graphite and gold working electrodes were used. Cyclic voltammetry (CV) and differential pulse voltammetry (DPV) were the electrochemical methods applied. The experimental conditions for each test are mentioned near the corresponding data (Appendix A).
The antioxidant properties were evaluated in terms of their activity against some free radicals, and other compounds reported in the literature, relevant for this purpose, such as: • ferric ions (Fe^3+)—used to test the reduction of the antioxidant character of the compounds; • DPPH˙ free radical– used to test the scavenging effect of the compounds on this radical; • hydrogen peroxide (H2O2)—used to test the scavenging effect of the synthesized molecules on this compound; • 2,2,6,6-tetramethylpiperidinyl-1-oxy (TEMPO)—used to test the scavenging effect of the synthesized molecules on this compound.
This method is based on the evaluation of the influence of the compound measured by the direct reduction of Fe[(CN)6]^3− to […]. This assay is based on the reduction of Fe^3+ to Fe^2+ due to the action of antioxidants. Based on the electrochemical behavior of the studied compounds, the interaction of Fe^3+ was followed by cyclic voltammetry (CV) via the possible changes of redox peaks characteristic for Fe^3+/Fe^2+ transition after the interaction with antioxidants (if any).
From the voltammogram of potassium ferricyanide it can be observed that the one-electron transfer process Fe^3+/Fe^2+ occurs at 0.247 V/ 0.150 V in acidic media (red) (Figure A1; Table A1).
Each compound presents its characteristic peaks (blue line in each figure).

E. coli ATCC 25922 = test: Antimicrobial activity, modified microdilution; type: cell-based; conditions: Escherichia coli, ATCC25922
Description: (§1) For evaluating the antimicrobial activity of the compounds, […] aerobic microbial strains were used: S. aureus ATCC 25923, S. pyogenes ATCC 19615, P. aeruginosa ATCC 27853, S. enterica ISM 83/37, S. typhimurium ATCC 14028, E. coli ATCC 8739, E. coli ATCC 25922, and C. albicans ATCC 102310 obtained from Food Biotechnology Laboratory, Life Sciences Institute, University of Agricultural Sciences, and Veterinary Medicine Cluj Napoca, where the experiment was performed. The antimicrobial activity of the compounds was determined using a modified microdilution technique, and the followed protocol was previously reported.
(§2) The antimicrobial activity of the final compounds, against seven aerobic microbial strains (S. aureus ATCC 25923, S. pyogenes ATCC 19615, P. aeruginosa ATCC 27853, S. enterica ISM 83/37, S. typhimurium ATCC 14028, E. coli ATCC 8739, E. coli ATCC 25922), and a fungal strain (C. albicans ATCC 102310), was determined using a modified microdilution technique.
(§3) The results of the antimicrobial activity evaluation of the compounds, in comparison to norfloxacin and chloramphenicol used as standard antibiotics and fluconazole used as reference antifungal, are depicted in Table 10.

E. coli ATCC 8739 = test: Antimicrobial activity, modified microdilution; type: cell-based; conditions: Escherichia coli, ATCC8739
Description: as §1, §2, §3

P. aeruginosa ATCC 27853 = test: Antimicrobial activity, modified microdilution; type: cell-based; conditions: Pseudomonas aeruginosa, ATCC27853
Description: as §1, §2, §3

S. aureus ATCC 25923 = test: Antimicrobial activity, modified microdilution; type: cell-based; conditions: Staphylococcus aureus, ATCC25923
Description: as §1, §2, §3

S. enterica ISM 83/37 = test: Antimicrobial activity, modified microdilution; type: cell-based; conditions: Salmonella enterica, ISM83/37
Description: as §1, §2, §3

S. pyogenes ATCC 19615 = test: Antimicrobial activity, modified microdilution; type: cell-based; conditions: Streptococcus pyogenes, ATCC19615
Description: as §1, §2, §3

[2] = system: S. typhimurium ATCC 14028; test: Antimicrobial activity, modified microdilution; type: cell-based; conditions: Salmonella enterica
Description: as §1, §2, §3

C. albicans ATCC 102310 = test: Antifungal activity, modified microdilution; type: cell-based; conditions: Candida albicans, ATCC102310
Description: as §1, §2, §3

[3] = ABTS˙^+ radical scavenging assay; type: biochemical; conditions: for IC50: ABTS˙^+ scavenging
Description: The assay was based on the decolorization of green (2,2′-azinobis-(3-ethylbenzothiazoline-6-sulfonic acid) ABTS˙^+ to ABTS, on the principle reported by Re et al. and was carried out according to our previously published research.
Later, 1950 µL of ABTS˙^+ reagent was added to all cuvettes and they were shaken for well over 10 min in the dark at room temperature. The absorbance of the resulted solutions found in cuvettes was determined spectrophotometrically at λ = 734 nm. The ABTS scavenging activity of the compounds was calculated using the following Equation (1):(1) ABTS scavenging (%)=control absorbance−sample absorbance/control absorbance×100

[4] = compound 0.5 mM + Fe^3+/Fe^2+ (0.5 mM potassium ferricyanide), 1st Eox column
[5] = compound 0.5 mM + Fe^3+/Fe^2+ (0.5 mM potassium ferricyanide), 1st Iox column
[6] = compound + Fe^3+/Fe^2+, 1st Ered
[7] = compound + Fe^3+/Fe^2+, 1st Ired
[8] = compound + Fe^3+/Fe^2+, 2nd Eox
[9] = compound + Fe^3+/Fe^2+, 2nd Ered column
[10] = compound + Fe^3+/Fe^2+, 2nd Iox column
[11] = compound + Fe^3+/Fe^2+, 2nd Ired
[12] = compound + Fe^3+/Fe^2+, 3rd Iox column
[13] = compound + Fe^3+/Fe^2+, 5th Eox
[14] = compound + Fe^3+/Fe^2+, 5th Iox column
[15] = compound alone 0.5 mM in 0.1 M HClO4, 2nd Eox
[16] = compound alone 0.5 mM in 0.1 M HClO4, 2nd Ered column
[17] = compound alone 0.5 mM in 0.1 M HClO4, 2nd Iox column
[18] = compound alone 0.5 mM in 0.1 M HClO4, 2nd Ired
[19] = compound alone 0.5 mM in 0.1 M HClO4, 3rd Eox column
[20] = compound alone 0.5 mM in 0.1 M HClO4, 3rd Iox column
[21] = compound alone 0.5 mM in 0.1 M HClO4, 5th Eox
[22] = compound alone 0.5 mM in 0.1 M HClO4, 5th Iox column
[23] = compound + Fe^3+/Fe^2+, 3rd Eox column

Compound | Chelation Capacity (%), cupric ions (Cu^2+ chelation assay; 3.36 µg/mL) | Chelation Capacity (%), cupric ions (Cu^2+ chelation assay; 6.72 µg/mL) | Chelation Capacity (%), cupric ions (Cu^2+ chelation assay; 10.08 µg/mL) | Chelation Capacity (%), cupric ions (Cu^2+ chelation assay; 13.44 µg/mL) | Chelation Capacity (%), cupric ions (Cu^2+ chelation assay; 16.80 µg/mL) | Eox (V) [1, 4] | Iox (μA) [1, 5] | Ered (V) [1, 6] | Ired (μA) [1, 7] | Eox (V) [1, 8] | Iox (μA) [1, 10] | Iox (μA) [1, 12] | Eox (V) [1, 13] | Iox (μA) [1, 14] | Eox (V) [1, 15] | Iox (μA) [1, 17] | MIC (E. coli ATCC 25922) | MIC (E. coli ATCC 8739) | MIC (P. aeruginosa ATCC 27853) | MIC (S. enterica ISM 83/37) | also measured
C/C(=N\Nc1nc(C)cs1)c1ccc(O)cc1O [Compound 5a, Dihydroxy-Phenyl-Thiazol-Hydrazinium chloride] | 10.74% | 14.51% | 20.10% | 28.62% | 33.67% | 0.152 V | 3.69 μA | 0.091 V | −7.33 μA | 0.308 V | 16.21 μA | 4.14 μA | 0.903 V | 3.82 μA | 0.308 V | 8.83 μA | > 100 µg/mL | > 100 µg/mL | 31.2 µg/mL | > 100 µg/mL | Ered (V) [1, 9]: 0.323 V; Ired (μA) [1, 11]: −0.99 μA; Ered (V) [1, 16]: 0.318 V; Ired (μA) [1, 18]: −1.23 μA; Eox (V) [1, 19]: 0.573 V; Iox (μA) [1, 20]: 5.23 μA; Eox (V) [1, 21]: 0.997 V; Iox (μA) [1, 22]: 9.78 μA; MIC (S. aureus ATCC 25923): > 100 µg/mL; MIC (S. pyogenes ATCC 19615): > 100 µg/mL; MIC [2]: > 100 µg/mL; MIC (C. albicans ATCC 102310): > 100 µg/mL
Cc1csc(N/N=C/c2ccc(O)cc2O)n1.Cl [Compound 5b, (E)-2-(2,4-dihydroxybenzylidene)-1-(4-methylthiazol-2-yl)hydrazin-1-ium chloride] | 11.58% | 15.60% | 22.76% | 28.99% | 34.10% | 0.152 V | 5.57 μA | 0.093 V | −8.66 μA | 0.342 V | 22.3 μA | 1.20 μA | 0.806 V | 8.68 μA | 0.355 V | 15.68 μA |  |  |  | > 100 µg/mL | % of ABTS˙^+ Scavenged ([3]; 0.5 µg/mL): 35.55%; % of ABTS˙^+ Scavenged ([3]; 0.75 µg/mL): 41.10%; % of ABTS˙^+ Scavenged ([3]; 1 µg/mL): 48.40%; % of ABTS˙^+ Scavenged ([3]; 1.5 µg/mL): 66.50%; % of ABTS˙^+ Scavenged ([3]; 2.5 µg/mL): 98.09%; IC50 [3]: 1.00 µg/mL; Ered (V) [1, 9]: 0.323 V; Ired (μA) [1, 11]: −1.52 μA; Eox (V) [1, 23]: 0.505 V; Eox (V) ([1]; compound + Fe^3+/Fe^2+, 4th Eox column): 0.506 V; Iox (μA) ([1]; compound + Fe^3+/Fe^2+, 4th Iox column): 8.68 μA; Ered (V) [1, 16]: 0.327 V; Ired (μA) [1, 18]: −1.56 μA; MIC (E. coli ATCC 25922; E. coli ATCC 25922, read-out: MIC): > 100 µg/mL; MIC (E. coli ATCC 8739; E. coli ATCC 8739, read-out: MIC): > 100 µg/mL; MIC (P. aeruginosa ATCC 27853; P. aeruginosa ATCC 27853, read-out: MIC): 31.2 µg/mL; MIC (S. aureus ATCC 25923; S. aureus ATCC 25923, read-out: MIC): > 100 µg/mL; MIC (S. pyogenes ATCC 19615; S. pyogenes ATCC 19615, read-out: MIC): > 100 µg/mL; MIC ([2]; S. typhimurium ATCC 14028, read-out: MIC): > 100 µg/mL; MIC (C. albicans ATCC 102310; C. albicans ATCC 102310, read-out: MIC): > 100 µg/mL
Br.C/C(=N\Nc1nc(-c2ccccc2)cs1)c1ccc(O)cc1O [Compound 6a, (E)-2-(1-(2,4-dihydroxyphenyl)ethylidene)-1-(4-phenylthiazol-2-yl)hydrazin-1-ium bromide] | 6.33% | 10.30% | 13.65% | 15.90% | 18.67% |  |  | 0.142 V | −5.88 μA | 0.223 V | 2.74 μA | 3.82 μA |  |  |  | 3.04 μA | > 100 µg/mL | > 100 µg/mL | 31.2 µg/mL | > 100 µg/mL | % of ABTS˙^+ Scavenged ([3]; 0.5 µg/mL): 4.75%; % of ABTS˙^+ Scavenged ([3]; 0.75 µg/mL): 7.92%; % of ABTS˙^+ Scavenged ([3]; 1 µg/mL): 12.68%; % of ABTS˙^+ Scavenged ([3]; 1.5 µg/mL): 22.21%; % of ABTS˙^+ Scavenged ([3]; 2.5 µg/mL): 36.01%; IC50 [3]: 3.34 µg/mL; Eox (V) [1, 23]: 0.424 V; Eox (V) [1, 19]: 0.586 V; Iox (μA) [1, 20]: 6.79 μA; MIC (S. aureus ATCC 25923): > 100 µg/mL; MIC (S. pyogenes ATCC 19615): > 100 µg/mL; MIC [2]: > 100 µg/mL; MIC (C. albicans ATCC 102310): > 100 µg/mL
Br.Oc1ccc(/C=N/Nc2nc(-c3ccccc3)cs2)c(O)c1 [Compound 6b, (E)-2-(2,4-dihydroxybenzylidene)-1-(4-phenylthiazol-2-yl)hydrazin-1-ium bromide] | 3.84% | 6.80% | 10.44% | 14.34% | 17.07% | 0.203 V | 2.48 μA | 0.149 V | −8.26 μA | 0.325 V | 44.78 μA |  | 0.879 V | 21.84 μA | 0.386 V | 37.55 μA | > 100 µg/mL | > 100 µg/mL | > 100 µg/mL | > 100 µg/mL | % of ABTS˙^+ Scavenged ([3]; 0.5 µg/mL): 11.67%; % of ABTS˙^+ Scavenged ([3]; 0.75 µg/mL): 17.45%; % of ABTS˙^+ Scavenged ([3]; 1 µg/mL): 19.83%; % of ABTS˙^+ Scavenged ([3]; 1.5 µg/mL): 28.56%; % of ABTS˙^+ Scavenged ([3]; 2.5 µg/mL): 42.53%; IC50 [3]: 2.97 µg/mL; Eox (V) [1, 21]: 0.894 V; Iox (μA) [1, 22]: 8.86 μA; MIC (S. aureus ATCC 25923): > 100 µg/mL; MIC (S. pyogenes ATCC 19615): > 100 µg/mL; MIC [2]: > 100 µg/mL; MIC (C. albicans ATCC 102310): 62.5 µg/mL
